In article PMC10819570, “Design, Synthesis, and Biological Evaluation of 2-Substituted Aniline Pyrimidine Derivatives as Potent Dual Mer/c-Met Inhibitors” (Molecules, 2024):
Entries after “also recorded” stand apart in the source; their conditions may differ.

What was measured:
[1] = molecular target: T1, Mer kinase (Homo sapiens, UniProt Q12866); assay: Mer kinase inhibitory activity assay (in vitro); assay type: biochemical; details: ATP 30 uM, enzyme 0.25 nM; means from three independent experiments
T1 sequence (Q12866 21-999): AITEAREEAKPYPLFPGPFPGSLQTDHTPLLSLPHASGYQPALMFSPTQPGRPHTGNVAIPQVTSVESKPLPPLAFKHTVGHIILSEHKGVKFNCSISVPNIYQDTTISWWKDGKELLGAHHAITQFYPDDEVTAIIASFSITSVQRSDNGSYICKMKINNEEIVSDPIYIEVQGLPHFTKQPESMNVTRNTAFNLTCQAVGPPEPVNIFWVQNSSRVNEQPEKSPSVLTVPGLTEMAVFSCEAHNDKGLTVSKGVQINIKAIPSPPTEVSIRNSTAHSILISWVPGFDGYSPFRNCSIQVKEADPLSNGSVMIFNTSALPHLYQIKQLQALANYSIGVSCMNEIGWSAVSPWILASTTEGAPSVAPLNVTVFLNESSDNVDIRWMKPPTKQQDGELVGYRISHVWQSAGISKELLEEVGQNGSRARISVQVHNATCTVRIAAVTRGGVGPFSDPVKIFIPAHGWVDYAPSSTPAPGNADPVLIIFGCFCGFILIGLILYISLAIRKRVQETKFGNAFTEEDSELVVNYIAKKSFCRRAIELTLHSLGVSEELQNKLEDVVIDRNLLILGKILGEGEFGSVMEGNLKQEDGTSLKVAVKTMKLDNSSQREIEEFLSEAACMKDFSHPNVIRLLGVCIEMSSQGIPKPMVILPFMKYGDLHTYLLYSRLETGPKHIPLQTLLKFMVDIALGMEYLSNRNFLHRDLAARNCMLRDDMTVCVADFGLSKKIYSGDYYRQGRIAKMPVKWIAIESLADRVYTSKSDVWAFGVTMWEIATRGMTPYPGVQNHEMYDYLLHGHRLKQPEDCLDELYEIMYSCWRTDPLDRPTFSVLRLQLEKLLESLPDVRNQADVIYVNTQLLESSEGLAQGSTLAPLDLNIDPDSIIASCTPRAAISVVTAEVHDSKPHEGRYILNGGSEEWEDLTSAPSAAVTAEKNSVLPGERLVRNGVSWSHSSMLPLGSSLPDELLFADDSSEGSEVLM
Protocol: The in vitro inhibition assays of all final compounds against Mer and c-Met kinase were performed by Shanghai Bioduro Biological Technology Co., Ltd. (Shanghai, China). We prepared 1× buffer: HEPES 50 mM, MgCl2 10 mM, EGTA 1 mM, NP-40 0.0001%, DTT 2 mM; compound dilution with DMSO. For test compounds, a 100 × final concentration solution was prepared. About 100 nL compounds were transferred to a 384-well plate by using the automated liquid handler. The final DMSO% in the assay is 1%. Enzyme stock solutions were diluted with 1× assay buffer to a concentration of 0.5 nM to make a 2× working solution. […] Substrate solutions were diluted with 1× assay buffer. About 5 μL mix or buffer was added manually to the assay plate (ATP final 30 uM and TK-Sub-Biotin final 2 uM) using a multichannel pipette, spun down at 1000 rpm, and centrifuged for 30 s. After incubating at 30 °C for 60 min, 10 μL of detection solution was added to each well of the assay, mixed briefly with a centrifuge, and equilibrated for another 60 min. The luminescence was recorded using Envision.

[2] = Liver microsome stability assay; assay type: in vitro ADME; details: pH 7.4, human liver microsomes 0.2 mg/mL, test compound 1 μM, NADPH
Protocol: Stock solution (10 mM) of each of test compound was prepared in DMSO. The stock solution for each compound was then diluted into 200 μM with acetonitrile. Incubation mixtures were prepared in a total volume of 200 μL with final component concentrations as follows: 0.1 M PBS (pH 7.4), NADPH (2 mM), liver microsomes (0.2 mg/mL), and test compound (1 μM) or positive control. NAPDH was added after a 5 min preincubation of all other components at 37 °C, then pipette-mixed to achieve a homogenous suspension and immediately transferred 20 μL of the incubate as a 0 min sample to wells in a “Quenching” plate, followed by pipette-mixing. At 5, 15, 30, and 60 min, we pipette-mixed the incubate and serially transferred samples of 20 μL of the incubate per time point to wells in a separate “Quenching” plate, followed by pipette-mixing. In “Quenching” plates, 200 μL of acetonitrile was added with IS. The 96 wells were centrifuged at 4000 rpm for 10 min. Then 50 μL of supernatant was mixed with 50 μL of ddH2O and injected into the LC-MS/MS system for analysis.

[3] = tested on: HepG2 cells; assay: Antiproliferation assay (CCK-8), HepG2; assay type: cell-based
Protocol: (§1) The antiproliferative activities of the compounds against HepG2, MDA-MB-231, and HCT116 cell lines were tested by the standard CCK-8 method. Cell viability was measured by Cell Counting Kit-8 (Meilunbio, Dalian, China) according to the manufacturer’s instructions. Briefly, cancer cells were seeded into 96-well plates at a density of 2.5 × 10^3 cells per well. […] Subsequently, CCK-8 solution was added into each well and incubated for an additional 2 h. The absorbance at 450 nm was determined in each well using the BioTek Synergy HTX microplate reader. The assay was performed in triplicate, and each experiment was repeated three times.

[4] = tested on: MDA-MB-231 cells; assay: Antiproliferation assay (CCK-8), MDA-MB-231; assay type: cell-based
Protocol: as §1

[5] = tested on: HCT116 cells; assay: Antiproliferation assay (CCK-8), HCT116; assay type: cell-based
Protocol: as §1, with “Cell” for “The antiproliferative activities of the compounds against HepG2, MDA-MB-231, and HCT116 cell lines were tested by the standard CCK-8 method. Cell”

[6] = molecular target: T2, hERG potassium currents (Homo sapiens, UniProt Q12809); assay: hERG potassium currents assay (automated whole-cell patch clamp, CHO cells); assay type: cell-based; details: CHO cells stably expressing hERG, QPatch
T2 construct: expressed in transfected cells
Protocol: CHO cells stably expressing the transcript of hERG were investigated by the automated whole-cell patch clamp technique, using the QPatch system (Sophion, Ballerup, Denmark). The detailed procedures of the hERG potassium currents assay were described in our previous work. Each cell was received from six escalating concentrations. Each concentration was tested on at least three cells. The reference compound cisapride was applied at the end of the test compound addition.

[7] = tested on: HCT116 cells; assay: TUNEL apoptosis assay; assay type: cell-based; details: HCT116, 48 h treatment
Protocol: The number of TUNEL-positive cells was counted from 5 non-overlap random fields per group; DAPI (blue). Data are representative of three independent experiments.
The One Step TUNEL Apoptosis Assay Kit (Meilunbio, Dalian, China) was used for studying apoptosis in a dose-dependent manner. HCT116 cells (1.5 × 10^4 cells/well) were cultured in TC-treated glass coverslip-containing plates. […] Next, adhered cells were fixed with 4% paraformaldehyde and permeabilized with 0.3% Triton-X-100. TUNEL staining was performed according to the manufacturer’s instructions. The nuclei of cells were counterstained with the DAPI reagent. Images were taken using an Olympus fluorescence microscope. The ED50 for 18c was calculated with the program GraphPad PRISM 9.5. The assay was performed in triplicate, and each experiment was repeated three times.

[8] = tested on: HCT116 cells; assay: Transwell migration assay; assay type: cell-based; details: 24 h
Protocol: Transwell migration assays were performed using Transwell® chamber inserts (Costar, Cambridge, MA, USA) with a porous polycarbonate membrane (8 μM pore size).
Transwell migration assays were performed using Transwell® chamber inserts (Costar, Cambridge, MA, USA) with a porous polycarbonate membrane ([…]). Briefly, 1.5 × 10^5 HCT116 cells were added in the top chamber with FBS-free culture media containing 0.2% BSA. A culture medium containing 15% FBS was added to the bottom chamber. […] After incubation for 24 h at 37 °C, the cells were fixed in methanol and stained with 0.1% crystal violet. The cells that had not migrated from the top surface of the filters were removed with cotton. Five randomly selected fields were captured by brightfield microscopy for each well. Migrated cells were quantitated by ImageJ (1.53c). Experiments were repeated at least three times in replicates.

[9] = ratio of IC50 values to cabozantinib

T2 sequence (Q12809 whole entry): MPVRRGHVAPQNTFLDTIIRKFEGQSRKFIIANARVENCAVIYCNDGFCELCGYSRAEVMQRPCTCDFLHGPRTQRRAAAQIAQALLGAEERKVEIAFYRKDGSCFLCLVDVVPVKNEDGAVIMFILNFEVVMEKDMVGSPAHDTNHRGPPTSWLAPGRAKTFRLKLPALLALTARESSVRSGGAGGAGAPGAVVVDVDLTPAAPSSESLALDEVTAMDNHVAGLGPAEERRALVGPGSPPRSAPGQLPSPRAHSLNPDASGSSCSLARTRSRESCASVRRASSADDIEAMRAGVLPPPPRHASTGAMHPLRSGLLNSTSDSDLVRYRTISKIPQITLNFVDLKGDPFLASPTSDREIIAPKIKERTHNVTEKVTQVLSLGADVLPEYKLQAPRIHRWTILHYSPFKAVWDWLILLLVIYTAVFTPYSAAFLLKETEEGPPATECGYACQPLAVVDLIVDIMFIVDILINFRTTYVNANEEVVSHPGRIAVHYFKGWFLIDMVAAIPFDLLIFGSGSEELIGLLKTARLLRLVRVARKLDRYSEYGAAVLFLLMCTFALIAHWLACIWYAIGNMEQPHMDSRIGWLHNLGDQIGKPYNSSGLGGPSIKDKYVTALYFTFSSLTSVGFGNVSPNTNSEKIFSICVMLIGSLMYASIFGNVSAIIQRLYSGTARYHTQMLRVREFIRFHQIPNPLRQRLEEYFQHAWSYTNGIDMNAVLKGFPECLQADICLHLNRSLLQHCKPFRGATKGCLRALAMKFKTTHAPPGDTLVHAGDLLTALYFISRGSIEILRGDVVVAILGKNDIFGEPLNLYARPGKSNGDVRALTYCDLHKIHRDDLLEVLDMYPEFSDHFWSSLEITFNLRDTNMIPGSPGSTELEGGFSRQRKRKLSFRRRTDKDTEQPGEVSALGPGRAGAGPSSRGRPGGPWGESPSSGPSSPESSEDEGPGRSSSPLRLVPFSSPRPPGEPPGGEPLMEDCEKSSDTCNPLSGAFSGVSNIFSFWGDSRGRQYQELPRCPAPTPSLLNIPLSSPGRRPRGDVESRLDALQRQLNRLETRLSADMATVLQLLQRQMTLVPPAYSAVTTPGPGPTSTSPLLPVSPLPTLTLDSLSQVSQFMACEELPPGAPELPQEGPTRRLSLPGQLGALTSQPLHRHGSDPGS

CN1CCN(CC(=O)Nc2ccc(Nc3nccc(Oc4ccc(NC(=O)C5(C(=O)Nc6ccc(F)cc6)CC5)cc4)n3)cc2)CC1 [Compound 18c]
IC50 [1]: 0.0185 ± 0.0023 µM
microsomal CLint at 1 μM ([2]; read-out: CL Human): 60 µL/min/mg
half-life at 1 μM ([2]; read-out: T1/2 Human): 53.1 min
IC50 ([3]; Homo sapiens, HepG2, 72 h, read-out: IC50 antiproliferative HepG2): 6.63 µM
Antiproliferative activity against HepG2, times lesser than cabozantinib [3, 9]: 3.8 times
IC50 ([4]; Homo sapiens, MDA-MB-231, 72 h, read-out: IC50 antiproliferative MDA-MB0231): 8.9 µM
Antiproliferative activity against MDA-MB-231, times higher than cabozantinib [4, 9]: 3.3 times
IC50 ([5]; Homo sapiens, HCT-116, 72 h, read-out: IC50 antiproliferative HCT116): 4.95 µM
Antiproliferative activity against HCT116, times higher than cabozantinib [5, 9]: 1.6 times
IC50 [6]: > 40 µM
ED50 apoptosis (TUNEL-positive cells) [7]: 10.07 µM
Inhibition of HCT116 cell migration vs control [8]: inhibited cell migration; also recorded: significantly inhibited
